Assay results as given in patent publication US10745346B2, “Agonists of protein tyrosine phosphatase SHP-1” (priority 2015, dated 2020).

What was measured:
[1] = tested on: PLC5 cells (a hepatocellular carcinoma cell line); assay: Cytotoxicity, MTT cell viability assay; assay type: cell-based; details: 72 h exposure
Procedure: PLC5 cells (a hepatocellular carcinoma cell line) were seeded at 5×10^3 cells per well in 96-well plates. Then, cells were exposed to SC derivatives at the indicated doses for 72 h. After that, cells were incubated with MTT (1 mg/ml) (Sigma-Aldrich, St. Louis, Mo.) for 2 h at 37° C. Cell viability was then assessed by measuring the absorbance at 570 nm using a microplate reader.

[2] = target: Recombinant SHP-1 protein (Homo sapiens, UniProt P29350); assay: SHP-1 phosphatase activity assay (RediPlate 96 EnzChek Tyrosine Phosphatase Assay kit); assay type: biochemical; details: SC derivatives at 1 μM for 2 hr; recombinant SHP-1 25 ng; control DMSO = 100; mean±SD (N=3)
Procedure, shortened: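 Recombinant human SHP-1 (25 ng) was incubated for 2 h with compound at 1 μM, using a DMSO solvent control. Tyrosine phosphatase activity was then measured with the EnzChek kit by absorbance at 465 nm. Values are mean±SD, N=3.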

Chain of Recombinant SHP-1 protein (P29350 whole entry): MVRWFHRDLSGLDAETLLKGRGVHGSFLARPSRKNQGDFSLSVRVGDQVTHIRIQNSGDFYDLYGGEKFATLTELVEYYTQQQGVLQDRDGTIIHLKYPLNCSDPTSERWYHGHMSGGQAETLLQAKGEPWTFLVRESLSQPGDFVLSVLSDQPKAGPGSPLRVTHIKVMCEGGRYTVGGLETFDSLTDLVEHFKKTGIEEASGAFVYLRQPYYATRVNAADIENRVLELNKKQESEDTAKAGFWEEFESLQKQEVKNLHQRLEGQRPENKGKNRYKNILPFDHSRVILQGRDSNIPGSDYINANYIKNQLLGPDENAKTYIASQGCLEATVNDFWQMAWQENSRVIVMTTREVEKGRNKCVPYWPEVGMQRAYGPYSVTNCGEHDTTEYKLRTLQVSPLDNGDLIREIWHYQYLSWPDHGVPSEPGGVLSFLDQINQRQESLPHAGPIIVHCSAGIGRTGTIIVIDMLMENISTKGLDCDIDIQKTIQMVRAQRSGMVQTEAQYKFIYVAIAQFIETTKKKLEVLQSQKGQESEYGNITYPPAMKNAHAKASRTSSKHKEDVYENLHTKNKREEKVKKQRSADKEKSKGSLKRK

Row | Structure (SMILES) | IC50 [1] [nM] | SHP-1 Activity (% of control) [2]
1 | N#Cc1ccc(Oc2cc(NC(=O)Nc3ccc(Cl)c(C(F)(F)F)c3)ccc2Cl)cc1 [compound 139, 1-(4-chloro-3-(4-cyanophenoxy)phenyl)-3-(4-chloro-3-(trifluoromethyl)phenyl)urea] | 310 | 280.62 ± 16.62 % of control
2 | N#Cc1ccc(Oc2cc(NC(=O)Nc3cc(C(F)(F)F)cc(C(F)(F)F)c3)ccc2Cl)cn1 [compound 182, 1-(3,5-bis(trifluoromethyl)phenyl)-3-(4-chloro-3-((6-cyanopyridin-3-yl)oxy)phenyl)urea] | 560 | 110.50 ± 6.08 % of control
3 | N#Cc1ccc(Oc2cccc(NC(=O)C(=O)Nc3ccc(Cl)c(C(F)(F)F)c3)c2)cc1 [compound 69, N^1-(4-chloro-3-(trifluoromethyl)phenyl)-N^2-(3-(4-cyanophenoxy)phenyl) oxalamide] | > 10000 | 95.16 ± 6.91 % of control
4 | N#CCc1ccc(NC(=O)Nc2ccc(Oc3ccc(CC#N)cc3)cc2)cc1 [compound 169, 1-(4-(4-(cyanomethyl)phenoxy)phenyl)-3-(4-(cyanomethyl)phenyl)urea] | > 10000 | 126.25 ± 1.46 % of control
5 | N#Cc1ccc(Oc2ccc3cccc(NC(=O)C4(C(=O)O)CC4)c3c2)cc1 [compound 75, 1-((7-(4-cyanophenoxy)naphthalen-1-yl)carbamoyl)cyclopropane carboxylic acid] | > 10000 | 111.30 ± 9.50 % of control
6 | N#Cc1ccc(Oc2cc(NC(=O)Nc3cccc(C(F)(F)F)c3)ccc2F)cc1 [compound 151, 1-(3-(4-cyanophenoxy)-4-fluorophenyl)-3-(3-(trifluoromethyl)phenyl)urea] | 590 | 136.00 ± 9.09 % of control
7 | Cc1ccc(NC(=O)Nc2cc(C(F)(F)F)cc(C(F)(F)F)c2)cc1Oc1ccc(C#N)cc1 [compound 131, 1-(3,5-bis(trifluoromethyl)phenyl)-3-(3-(4-cyanophenoxy)-4-methylphenyl) urea] | 230 | 327.86 ± 34.79 % of control
8 | C#Cc1cccc(NC(=O)Nc2cc(Oc3ccc(C#N)cc3)ccc2F)c1 [compound 144, 1-(5-(4-cyanophenoxy)-2-fluorophenyl)-3-(3-ethynylphenyl)urea] | 1790 | 159.94 ± 30.14 % of control
9 | N#Cc1ccc(Oc2ccc3c(c2)N(C(=O)Nc2cccc(C(F)(F)F)c2)CCO3)cc1 [compound 159, 6-(4-cyanophenoxy)-N-(3-(trifluoromethyl)phenyl)-2H-benzo[b][1,4]oxazine-4(3H)-carboxamide] | 2560 | 98.04 ± 8.80 % of control
10 | Cc1ccc(NC(=O)Nc2ccc(Cl)c(C(F)(F)F)c2)cc1Oc1ccc(C#N)nc1 [compound 87, 1-(4-chloro-3-(trifluoromethyl)phenyl)-3-(3-((6-cyanopyridin-3-yl)oxy)-4-methylphenyl)urea] | 970 | 264.67 ± 32.11 % of control
11 | N#Cc1ccc(Oc2ccc3cccc(NC(=O)Nc4ccc(Cl)c(C(F)(F)F)c4)c3c2)cc1 [compound 72, 1-(4-chloro-3-(trifluoromethyl)phenyl)-3-(7-(4-cyanophenoxy)naphthalen-1-yl)urea] | 2250 | 131.47 ± 14.99 % of control
12 | N#Cc1ccc(Oc2cc(NC(=O)Nc3cccc(C(F)(F)F)c3)ccc2Cl)cc1 [compound 138, 1-(4-chloro-3-(4-cyanophenoxy)phenyl)-3-(3-(trifluoromethyl)phenyl)urea] | 570 | 196.54 ± 22.4 % of control
13 | C#Cc1cccc(NC(=O)Nc2cccc(Oc3ccc(C#N)cc3)c2)c1 [compound 65, 1-(3-(4-cyanophenoxy)phenyl)-3-(3-ethynylphenyl)urea] | 1410 | 84.35 ± 22.40 % of control
14 | N#Cc1ccc(Oc2cc(NC(=O)Nc3cc(C(F)(F)F)cc(C(F)(F)F)c3)ccc2Cl)cc1Cl [compound 180, 1-(3,5-bis(trifluoromethyl)phenyl)-3-(4-chloro-3-(3-chloro-4-cyanophenoxy)phenyl)urea] | 780 | 105.52 ± 0.87 % of control
15 | Cc1ccc(NC(=O)Nc2cccc3ccc(Oc4ccc(C#N)cc4)cc23)cc1Oc1ccc(C#N)cc1 [compound 107, 1-(3-(4-cyanophenoxy)-4-methylphenyl)-3-(7-(4-cyanophenoxy)naphthalen-1-yl)urea] | > 10000 | 149.03 ± 14.47 % of control
